Experimental data as given in PubChem BioAssay AID330 (DTP/NCI, 2004).
Where “and” joins values, the source holds several entries; their conditions need not be identical. Identical values can stand only once. Toxic doses and inconclusive results are not listed.

Test system: P388 leukemia ip, CD2F1 mice, survival T/C
Experiment: NCI In Vivo Anticancer Drug Screen. Data for tumor model P388 Leukemia (intraperitoneal) in CD2F1 (CDF1) mice
Settings: endpoint: median survival time, higher = longer survival
Summary of the method: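 Mice carrying the transplanted tumor received test compound or vehicle. Survival was recorded in each group, and the value is the treated-group measurement divided by that of the vehicle-treated control group.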

[1] = dose: 60.0 mg/kg/injection, schedule: Q01DX005 (ip), vehicle: Klucel + Tween-80
[2] = dose: 120.0 mg/kg/injection, schedule: Q01DX005 (ip), vehicle: Klucel + Tween-80
[3] = dose: 50.0 mg/kg/injection, schedule: Q01DX005 (ip), vehicle: Klucel (hydroxypropylcellulose) (HPC)
[4] = dose: 50.0 mg/kg/injection, schedule: Q01DX005 (ip), vehicle: saline with Tween-80
[5] = dose: 100.0 mg/kg/injection, schedule: Q01DX005 (ip), vehicle: saline with Tween-80
[6] = dose: 200.0 mg/kg/injection, schedule: Q01DX005 (ip), vehicle: saline with Tween-80
[7] = dose: 25.0 mg/kg/injection, schedule: Q01DX009 (ip), vehicle: Klucel (hydroxypropylcellulose) (HPC)
[8] = dose: 100.0 mg/kg/injection, schedule: Q01DX005 (ip), vehicle: Klucel (hydroxypropylcellulose) (HPC)
[9] = dose: 200.0 mg/kg/injection, schedule: Q01DX005 (ip), vehicle: Klucel (hydroxypropylcellulose) (HPC)
[10] = dose: 50.0 mg/kg/injection, schedule: Q01DX009 (ip), vehicle: Klucel (hydroxypropylcellulose) (HPC)
[11] = dose: 100.0 mg/kg/injection, schedule: Q01DX009 (ip), vehicle: Klucel (hydroxypropylcellulose) (HPC)
[12] = dose: 200.0 mg/kg/injection, schedule: Q01DX009 (ip), vehicle: Klucel (hydroxypropylcellulose) (HPC)

C=C1C(=O)OC2C1CC/C(C)=C/CCC1(C)OC21 (centres undefined)
T/C (dose: 8.75 mg/kg/injection, schedule: Q01DX009 (ip), vehicle: Klucel (hydroxypropylcellulose) (HPC)): 106 % of control | T/C (dose: 17.5 mg/kg/injection, schedule: Q01DX009 (ip), vehicle: Klucel (hydroxypropylcellulose) (HPC)): 106 % of control

CN1CCC(O)(C(=O)c2ccccc2)CC1
T/C (dose: 100.0 mg/kg/injection, schedule: Q04DX002 (ip), vehicle: saline): 99 % of control and 104 % of control | T/C (dose: 200.0 mg/kg/injection, schedule: Q04DX002 (ip), vehicle: saline): 103 % of control

CCN1CCc2nc(N)oc2CC1
T/C (dose: 50.0 mg/kg/injection, schedule: Q01DX009 (ip), vehicle: saline): 107 % of control | T/C (dose: 100.0 mg/kg/injection, schedule: Q01DX009 (ip), vehicle: saline): 110 % of control | T/C (dose: 200.0 mg/kg/injection, schedule: Q01DX009 (ip), vehicle: saline): 115 % of control

COc1cc(/C=N/n2c(-c3ccccc3)nc3ccccc3c2=O)cc(Br)c1O
T/C (dose: 60.0 mg/kg/injection, schedule: Q01DX005 (ip), vehicle: Klucel (hydroxypropylcellulose) (HPC)): 89 % of control | T/C (dose: 120.0 mg/kg/injection, schedule: Q01DX005 (ip), vehicle: Klucel (hydroxypropylcellulose) (HPC)): 87 % of control | T/C (dose: 240.0 mg/kg/injection, schedule: Q01DX005 (ip), vehicle: Klucel (hydroxypropylcellulose) (HPC)): 87 % of control

CC(C)COC(=O)CN(CC(=O)OCC(C)C)c1ccccc1
T/C (dose: 100.0 mg/kg/injection, schedule: Q04DX003 (ip), vehicle: saline with Tween-80): 109 % of control | T/C (dose: 200.0 mg/kg/injection, schedule: Q04DX003 (ip), vehicle: saline with Tween-80): 104 % of control | T/C (dose: 400.0 mg/kg/injection, schedule: Q04DX003 (ip), vehicle: saline with Tween-80): 113 % of control

Cc1ccc(C)c2c1C(=O)c1c(C)ccc(C)c1C2(O)C#Cc1ccccc1
T/C (dose: 50.0 mg/kg/injection, schedule: Q01DX009 (ip), vehicle: saline with Tween-80): 98 % of control | T/C (dose: 100.0 mg/kg/injection, schedule: Q01DX009 (ip), vehicle: saline with Tween-80): 89 % of control | T/C (dose: 200.0 mg/kg/injection, schedule: Q01DX009 (ip), vehicle: saline with Tween-80): 89 % of control

CCOc1c(N=Nc2ccc(Cl)cc2Cl)c(C)nn1C(=S)SC
T/C [1]: 103 % of control | T/C [2]: 107 % of control

CN1N=C(N)c2cn(C3OC(COP(=O)(O)O)C(O)C3O)c3ncnc1c23 (centres undefined)
T/C (dose: 6.25 mg/kg/injection, schedule: Q01DX009 (ip), vehicle: water): 124 % of control | T/C (dose: 20.0 mg/kg/injection, schedule: Q01DX005 (ip), vehicle: saline): 122 % of control | T/C (dose: 38.0 mg/kg/injection, schedule: Q01DX005 (ip), vehicle: water): 124 % of control

CN(C)CCn1c2nc(=O)[nH]c(=O)c-2nc2ccccc21
T/C (dose: 6.25 mg/kg/injection, schedule: Q01DX005 (ip), vehicle: Klucel (hydroxypropylcellulose) (HPC)): 93 % of control | T/C (dose: 12.5 mg/kg/injection, schedule: Q01DX005 (ip), vehicle: Klucel (hydroxypropylcellulose) (HPC)): 100 % of control | T/C (dose: 25.0 mg/kg/injection, schedule: Q01DX005 (ip), vehicle: Klucel (hydroxypropylcellulose) (HPC)): 101 % of control | T/C [3]: 98 % of control

O=Nc1c2cc3ccccc3[nH]c-2c2ccccc12
T/C [4]: 101 % of control | T/C [5]: 93 % of control | T/C [6]: 97 % of control

CCC(=O)NC1=C(N2CC2C)C(=O)C(NC(=O)CC)=C(N2CC2C)C1=O (centres undefined)
T/C (dose: 12.5 mg/kg/injection, schedule: Q01DX009 (ip), vehicle: Klucel (hydroxypropylcellulose) (HPC)): 210 % of control | T/C (dose: 12.5 mg/kg/injection, schedule: Q01DX009 (ip), vehicle: saline): 164 % of control | T/C [7]: 103 % of control | T/C (dose: 25.0 mg/kg/injection, schedule: Q01DX009 (ip), vehicle: saline): 117 % of control

COc1cc2c(cc1OC)-c1cccc3c1N(CC2)CC3
T/C (dose: 25.0 mg/kg/injection, schedule: Q04DX002 (ip), vehicle: saline with Tween-80): 100 % of control | T/C (dose: 50.0 mg/kg/injection, schedule: Q04DX002 (ip), vehicle: saline with Tween-80): 98 % of control | T/C (dose: 100.0 mg/kg/injection, schedule: Q04DX002 (ip), vehicle: saline with Tween-80): 100 % of control

CCCSC(=S)Nc1nc2ccc(C)cc2s1
T/C (dose: 100.0 mg/kg/injection, schedule: Q04DX003 (ip), vehicle: saline): 100 % of control | T/C (dose: 200.0 mg/kg/injection, schedule: Q04DX003 (ip), vehicle: saline): 93 % of control | T/C (dose: 400.0 mg/kg/injection, schedule: Q04DX003 (ip), vehicle: saline): 101 % of control

CCCCN(CCCC)CC(O)c1cc(-c2ccc(Cl)cc2)nc2c(Cl)cc(Cl)cc12 (centres undefined)
T/C [1]: 100 % of control | T/C [2]: 88 % of control

O=c1cnn(C2OC(CO)C(O)C2Cl)c(=O)[nH]1 (centres undefined)
T/C (dose: 4.06 mg/kg/injection, schedule: Q01DX009 (ip), vehicle: saline): 99 % of control | T/C (dose: 8.12 mg/kg/injection, schedule: Q01DX009 (ip), vehicle: saline): 108 % of control | T/C (dose: 16.25 mg/kg/injection, schedule: Q01DX009 (ip), vehicle: saline): 101 % of control | T/C (dose: 32.5 mg/kg/injection, schedule: Q01DX009 (ip), vehicle: saline): 101 % of control | T/C (dose: 65.0 mg/kg/injection, schedule: Q01DX009 (ip), vehicle: saline): 106 % of control | T/C (dose: 130.0 mg/kg/injection, schedule: Q01DX009 (ip), vehicle: saline): 102 % of control

COC(=O)Nc1c2c(nc3ccccc13)-c1ccccc1C(C)(C)C2OC (centres undefined)
T/C [3]: 99 % of control | T/C [8]: 108 % of control | T/C [9]: 104 % of control

CC12CC3CC(C)(C1)CC(C(Cl)C(=O)NC(C)(C)C)(C3)C2 (centres undefined)
T/C [10]: 97 % of control | T/C [11]: 100 % of control | T/C [12]: 93 % of control

CCOc1ccc(N2CC(=O)N3CCCCN3C(=O)C2)cc1
T/C [3]: 112 % of control | T/C [8]: 103 % of control | T/C [9]: 105 % of control

O=C(Nc1cccnc1)c1ccccc1
T/C (dose: 6.25 mg/kg/injection, schedule: Q01DX009 (ip), vehicle: saline with Tween-80): 100 % of control | T/C (dose: 12.5 mg/kg/injection, schedule: Q01DX009 (ip), vehicle: saline with Tween-80): 100 % of control | T/C (dose: 25.0 mg/kg/injection, schedule: Q01DX009 (ip), vehicle: saline with Tween-80): 100 % of control

Cc1nonc1-c1ccc2c(c1)OCO2
T/C [7]: 110 % of control | T/C [10]: 105 % of control | T/C [11]: 106 % of control | T/C [12]: 105 % of control

COc1ccc(CN2CCC[S+]2C)cc1 (centres undefined)
T/C (dose: 50.0 mg/kg/injection, schedule: Q01DX005 (ip), vehicle: saline): 95 % of control

COC(=O)C(C)NC(=O)c1c2nc3c(C(=O)NC(C)C(=O)OC)ccc(C)c3oc-2c(C)c(=O)c1N (centres undefined)
T/C (dose: 3.12 mg/kg/injection, schedule: Q01DX005 (ip), vehicle: distilled water + Tween-80): 100 % of control | T/C (dose: 3.12 mg/kg/injection, schedule: Q01DX005 (ip), vehicle: saline with Tween-80): 98 % of control | T/C (dose: 6.25 mg/kg/injection, schedule: Q01DX005 (ip), vehicle: distilled water + Tween-80): 100 % of control and 102 % of control | T/C (dose: 6.25 mg/kg/injection, schedule: Q01DX005 (ip), vehicle: saline with Tween-80): 97 % of control | T/C (dose: 12.5 mg/kg/injection, schedule: Q01DX005 (ip), vehicle: distilled water + Tween-80): 96 % of control | T/C (dose: 12.5 mg/kg/injection, schedule: Q01DX005 (ip), vehicle: saline with Tween-80): 87 % of control and 92 % of control | T/C (dose: 25.0 mg/kg/injection, schedule: Q01DX005 (ip), vehicle: distilled water + Tween-80): 89 % of control and 94 % of control | T/C (dose: 50.0 mg/kg/injection, schedule: Q01DX005 (ip), vehicle: distilled water + Tween-80): 90 % of control | T/C [4]: 89 % of control | T/C [5]: 89 % of control | T/C [6]: 92 % of control
